Measured values as given in ChEMBL document CHEMBL6182933, “Design and Synthesis of PARP/CDK6 Dual-Target Inhibitors Modulating of Wnt/β-Catenin Signaling Pathway for the Treatment of BRCA Wild-Type TNBC” (J Med Chem, 2025).

Experiments:
[1] = Selectivity index, ratio of IC50 for antiproliferative activity against human HCC1937 cells harboring BRCA1 mutant assessed as cell viability to IC50 for antiproliferative activity against human MDA-MB-231 cells assessed as cell viability; type: functional
[2] = Cytotoxicity against human MCF-10A cells assessed as cell viability incubated for 48 hrs by MTT assay; type: toxicity, cell-based
HCT-116 = test: Antiproliferative activity against human HCT-116 cells harboring BRCA2 mutant assessed as cell viability incubated for 48 hrs by MTT assay; type: functional, cell-based; details: HCT-116, 48 h
MDA-MB-231 = test: Antiproliferative activity against human MDA-MB-231 cells assessed as cell viability incubated for 48 hrs by MTT assay; type: functional, cell-based; details: MDA-MB-231, 48 h
[3] = molecular target: Poly [ADP-ribose] polymerase 1 (Homo sapiens, UniProt P09874); test: Inhibition of GST-tagged PARP1(unknown origin) in presence of activated DNA incubated for 60 mins by microplate reader analysis
Chain of Poly [ADP-ribose] polymerase 1 (P09874 whole entry): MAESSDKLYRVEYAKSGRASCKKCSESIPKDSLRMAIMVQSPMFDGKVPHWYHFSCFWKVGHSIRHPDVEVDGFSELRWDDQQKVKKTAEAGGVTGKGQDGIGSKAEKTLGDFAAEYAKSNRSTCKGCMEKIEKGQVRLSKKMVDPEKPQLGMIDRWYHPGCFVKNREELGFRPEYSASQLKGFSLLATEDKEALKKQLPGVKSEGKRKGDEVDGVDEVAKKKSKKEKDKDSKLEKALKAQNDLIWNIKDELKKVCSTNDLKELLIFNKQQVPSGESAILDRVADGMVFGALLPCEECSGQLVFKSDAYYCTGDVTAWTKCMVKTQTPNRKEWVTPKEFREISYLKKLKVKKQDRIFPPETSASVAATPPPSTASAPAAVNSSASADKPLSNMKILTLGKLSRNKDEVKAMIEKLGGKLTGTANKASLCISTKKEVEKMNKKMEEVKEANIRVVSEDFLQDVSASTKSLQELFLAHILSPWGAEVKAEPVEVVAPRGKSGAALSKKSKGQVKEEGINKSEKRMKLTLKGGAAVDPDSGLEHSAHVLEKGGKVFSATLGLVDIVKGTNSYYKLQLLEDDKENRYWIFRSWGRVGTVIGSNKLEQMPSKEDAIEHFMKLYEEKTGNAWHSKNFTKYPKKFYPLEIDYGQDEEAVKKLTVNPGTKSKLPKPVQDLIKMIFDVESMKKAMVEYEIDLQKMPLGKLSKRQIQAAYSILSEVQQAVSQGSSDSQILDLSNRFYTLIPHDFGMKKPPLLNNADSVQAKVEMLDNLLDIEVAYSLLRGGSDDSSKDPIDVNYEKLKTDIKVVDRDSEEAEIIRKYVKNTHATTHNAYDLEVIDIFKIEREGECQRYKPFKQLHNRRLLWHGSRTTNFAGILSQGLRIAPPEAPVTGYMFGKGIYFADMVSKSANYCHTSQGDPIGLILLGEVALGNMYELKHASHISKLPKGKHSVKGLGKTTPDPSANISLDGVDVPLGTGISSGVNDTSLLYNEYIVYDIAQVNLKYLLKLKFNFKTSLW

HCC1937 = test: Antiproliferative activity against human HCC1937 cells harboring BRCA1 mutant assessed as cell viability incubated for 48 hrs by MTT assay; type: functional, cell-based; details: HCC1937, 48 h
[4] = molecular target: Cyclin-dependent kinase 6 (Homo sapiens, UniProt Q00534); test: Inhibition of full length N-terminal human recombinant CDK6 expressed in baculovirus sf9 cells in presence of ATP by ADP-glo kinase assay
Chain of Cyclin-dependent kinase 6 (Q00534 whole entry): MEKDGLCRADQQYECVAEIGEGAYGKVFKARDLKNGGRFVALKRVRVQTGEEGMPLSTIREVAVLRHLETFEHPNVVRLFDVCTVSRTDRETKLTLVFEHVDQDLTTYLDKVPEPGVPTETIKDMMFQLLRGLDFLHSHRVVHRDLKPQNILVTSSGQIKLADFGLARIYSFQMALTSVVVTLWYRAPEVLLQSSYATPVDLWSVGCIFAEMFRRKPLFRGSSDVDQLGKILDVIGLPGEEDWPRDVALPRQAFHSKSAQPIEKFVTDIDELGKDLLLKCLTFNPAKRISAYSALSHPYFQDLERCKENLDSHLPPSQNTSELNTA

MDA-MB-468 = test: Antiproliferative activity against human MDA-MB-468 cells assessed as cell viability incubated for 48 hrs by MTT assay; type: functional, cell-based; details: MDA-MB-468, 48 h

CN(C)C(=O)c1cc2cnc(Nc3ccc(C(=O)N4CCC(c5nc6c(C(N)=O)cccc6[nH]5)C4)cc3Cl)nc2n1C1CCCC1 (stereo not drawn)
Ratio IC50 [1]: 5.48 | IC50 at 48 h [2]: 930 nM | IC50 (HCT-116): 2020 nM | IC50 (MDA-MB-231): 1590 nM | IC50 [3]: 113 nM | IC50 (HCC1937): 8720 nM | IC50 [4]: 45.6 nM | IC50 (MDA-MB-468): 4390 nM
